# Experimental data: PMC8920107 (ADMET & DMPK, 2020)
# Values joined by “and” are separate entries in the source; they are usually repeats but may differ in a detail not shown here. Identical values can stand only once. Like-named read-outs stand apart in the source and are kept apart here.
# Experiments:
# HSA [1] = conditions: cited from earlier work; for % HSA: calibration drugs, equilibrium dialysis literature % binding
# AGP [2] = conditions: cited from earlier work
# AGP [3] = test: Literature AGP binding by equilibrium dialysis
# HSA [4] = system: HSA
# [5] = design: method as in PMID 11472245; conditions: calibration set of compounds, predefined values; cited from earlier work
# [6] = target: human serum albumin (HSA) (Homo sapiens, UniProt P02768); test: Albumin binding by biomimetic HPLC on Chiralpak HSA column; conditions: for fraction unbound: human, Chiralpak HSA HPLC column (immobilised human serum albumin), pH 7.4; for % HSA bound: standard 6 min IPA gradient up to 35 %, pH 7.4, racemate; for log k (HSA): standard 6 min IPA gradient, racemate; for calculated % binding, HSA 5 % IPA: isocratic 5 % IPA, partial calibration set; for calculated % binding, HSA 15 % IPA: isocratic 15 % IPA
# Sequence of human serum albumin (HSA) (P02768 25-609): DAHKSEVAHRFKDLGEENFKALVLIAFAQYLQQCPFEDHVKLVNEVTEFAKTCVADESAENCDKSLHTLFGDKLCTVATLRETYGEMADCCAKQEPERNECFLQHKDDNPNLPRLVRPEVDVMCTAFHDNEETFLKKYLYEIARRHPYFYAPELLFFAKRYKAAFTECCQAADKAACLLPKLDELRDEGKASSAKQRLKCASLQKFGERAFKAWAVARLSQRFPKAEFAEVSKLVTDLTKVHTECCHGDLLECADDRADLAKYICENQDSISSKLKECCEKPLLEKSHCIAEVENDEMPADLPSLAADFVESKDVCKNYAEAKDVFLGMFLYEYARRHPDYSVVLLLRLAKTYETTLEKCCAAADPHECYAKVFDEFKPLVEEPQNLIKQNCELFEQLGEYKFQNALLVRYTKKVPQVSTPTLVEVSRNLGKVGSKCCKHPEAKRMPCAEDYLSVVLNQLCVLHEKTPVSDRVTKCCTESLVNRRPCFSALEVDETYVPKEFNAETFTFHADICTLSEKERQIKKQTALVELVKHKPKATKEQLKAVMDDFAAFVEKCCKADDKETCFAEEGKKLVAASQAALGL
# Method: (§1) The protein binding measurements were carried out on Chiralpak HSA and Chiralpak AGP columns with the dimensions of 3 x 50 mm with 5 um particle size stationary phase (Chiril Technologies Europe, France). The mobile phase was 50 mM ammonium acetate adjusted to pH 7.4 with a flow rate of 1.2 mL/min. […] The cycle time was 6 min with an additional 1 min re-equilibration time.
# (§2) The cycle time was 8 min plus an additional 1 min re-equilibration time.
# [7] = Human plasma protein binding by rapid equilibrium dialysis (RED); type: in vitro ADME; conditions: 100 % pooled human plasma, pH 7.4, 37 °C
# Method: The test compounds were prepared in 100 % pooled human plasma. The measurement was performed using equilibrium dialysis with the two compartments separated by a semi-permeable membrane. The plasma solution was added to one side of the membrane while buffer (pH 7.4) was added to the other side. The system was allowed to reach equilibrium at 37 °C. Compound concentration on both sides of the membrane was measured by LC-MS/MS, and the fraction of unbound compound calculated. Calibration standards were prepared in plasma and buffer. Test compound incubations were performed in triplicate. A control compound was included in each experiment. The solutions for each batch of compounds were combined into two groups (protein-free and protein-containing). Cassette analysed by LC-MS/MS using two sets of calibration standards for protein-free solutions (7 points) and protein-containing solutions (7 points). The experiments were carried out at Cyprotex Discovery Ltd (UK) and repeated at Sygnature Discovery Ltd (UK) laboratories using their generic LC/MS method. The unbound fraction (fu) is calculated from the concentration of the test compound in the protein-containing side Cp and the protein-free side Cf based on the formula: […]
# [8] = Phospholipid binding at pH 7.4 on Immobilized Artificial Membrane (IAM) HPLC column; type: physicochemical; conditions: pH 7.4, standard 6 min protocol
# Method: The phospholipid-binding was measured using an IAM PC.DD2 column with dimensions of 100 x 4.6 mm (Regis Technologies Inc., Morton Grove, IL, USA). The gradient retention times of the compounds were measured using a 50 mM ammonium acetate starting mobile phase with the pH adjusted to 7.4. The mobile phase flow rate was 1.5 mL/min. […] The cycle time was 6 min plus an additional 1 min equilibration time was applied while the injector prepared for the next injection. The gradient retention times were calibrated with the acetophenone homologues for which the CHI IAM values have been established using isocratic measurements [26]. The Chromatographic Hydrophobicity Index on the IAM column [CHI(IAM)] approximates to the acetonitrile concentration in the mobile phase when the compound elutes. CHI(IAM) values above 45 indicate strong phospholipid binding. Repeating the retention time measurements provided the error only in the third digit of the minute (±0.005).
# [9] = Estimated lung tissue binding from biomimetic HPLC data (model equation); conditions: standard 6 min protocol data
# Source text: (§3) Thus, the regression coefficients in linear regression analysis are meaningful and reflect to the physiological proportion of the albumin and phospholipids in the body. […] They are based on the calibrated retention times obtained on C-18, IAM, Chiralpak HSA and Chiralpak AGP columns.
# [10] = Estimated volume of distribution, unbound volume of distribution and drug efficiency from biomimetic HPLC data; conditions: standard 6 min protocol data
# Source text: as §3
# [11] = both in animals and in human; cited from earlier work
# [12] = system: α-1-acid-glycoprotein (AGP); test: Glycoprotein binding by biomimetic HPLC on Chiralpak AGP column; conditions: for % AGP bound: standard 6 min IPA gradient up to 35 %, pH 7.4, racemate; for calculated % binding, AGP 5 % IPA: isocratic 5 % IPA; for calculated % binding, AGP 5 % IPA / calculated % binding, AGP 8 % IPA / calculated % binding, AGP 15 % IPA: 1.2 mL/min; for calculated % binding, AGP 8 % IPA: isocratic 8 % IPA; for calculated % binding, AGP 15 % IPA: isocratic 15 % IPA
# Method: as §1, §2
# [13] = cited from earlier work
# [14] = Estimated total plasma protein binding from biomimetic HPLC data (model equation); conditions: from % HSA, % AGP and lipophilicity, standard 6 min protocol; for fraction unbound: human, read-out: Estimated % plasma protein binding (PPB) (converted)
# Source text: as §3
# [15] = Estimated brain tissue binding and brain to blood ratio from biomimetic HPLC data (model equations); conditions: standard 6 min protocol data; for %BTB: brain tissue binding; for Kp at 0.1 h: read-out: Brain to plasma
# Source text: as §3
# [16] = cited from earlier work; remark: listed apart in the source
# [17] = Phospholipidotic potential (CAD-likeness) from CHI values; conditions: CHI (IAM) + (CHI at pH 10.5 – CHI at pH 7.4)
# [18] = Chromatographic Hydrophobicity Index (CHI) lipophilicity at three pHs, C-18 gradient HPLC; type: physicochemical
# Method: Gemini NX C-18(2) 5 um columns with dimensions of 3 x 50 mm (Phenomenex Ltd. Macclesfield, UK) were used for the determination of the Chromatographic Hydrophobicity Index (CHI) and the CHIlogD values. […] An acetonitrile linear gradient was used from 0 to 100 %. The acetonitrile concentration reached 100 % in 3.5 min. The 100 % acetonitrile mobile phase was maintained for an additional 1 min before it was returned to 0 % at 4.7 min. The cycle time of the gradient run was 6 min, with an additional equilibration time of 1 min before the next injection. The error in the retention time measurements is ±0.005 min in general after repeated injections.
# [19] = Estimated cell partition coefficient from IAM binding (model equation); conditions: standard 6 min protocol data
# Source text: as §3
# [20] = calibration compounds, literature value, no reference given; cited from earlier work
# [21] = calibration drugs, equilibrium dialysis literature % binding
smiles,measurement,setting,value
CC(=O)Nc1ccc(O)cc1 [Paracetamol],% HSA,HSA [1],14.0%
same,% AGP,AGP [2]; [21],3.2%
same,log k (AGP),AGP [3],-1.5
same,log k (HSA),HSA [4],-0.8
COc1ccc2c(c1)c(CC(=O)O)c(C)n2C(=O)c1ccc(Cl)cc1 [Indomethacin],% AGP,AGP [2]; [21],56%
same,log k (AGP),AGP [3],0.1
same,log k (HSA),HSA [4],1.8
NC(=O)N1c2ccccc2C=Cc2ccccc21 [Carbamazepine],% HSA,HSA [1],75.0%
same,% AGP,AGP [2]; [21],65%
same,log k (AGP),AGP [3],0.3
same,log k (HSA),HSA [4],0.5
CCCC(=O)c1ccccc1 [Butyrophenone],CHI at pH 2.6,[5],87.3
same,CHI at pH 7.4,[5],87.5
same,CHI at pH 10.5,[5],87.3
CCC(=O)c1ccccc1 [Propiophenone],CHI at pH 2.6,[5],77.4
same,CHI at pH 7.4,[5],77.4
same,CHI at pH 10.5,[5],77.4
CC(=O)CC(c1ccccc1)c1c(O)c2ccccc2oc1=O (stereo not drawn) [Warfarin],% AGP,AGP [2],83.2%
same,log k (AGP),AGP [3],0.7
same,log k (HSA),HSA [4],1.5
c1ccc2[nH]cnc2c1 [Benzimidazole],CHI at pH 2.6,[5],6.3
same,CHI at pH 7.4,[5],34.3
same,CHI at pH 10.5,[5],30.6
CC(=O)c1ccccc1 [Acetophenone],CHI at pH 2.6,[5],64.1
same,CHI at pH 7.4,[5],65.1
same,CHI at pH 10.5,[5],64.1
c1ccc(-c2nn[nH]n2)cc1 [Phenyl tetrazole],CHI at pH 2.6,[5],42.2
same,CHI at pH 7.4,[5],23.6
same,CHI at pH 10.5,[5],16.0
"CCN(CC)CCCC(C)Nc1ccnc2cc(Cl)ccc12 (stereo not drawn) [CQ, Chloroquine]",fraction unbound,[6],0.178
same,% HSA bound,[6],87% and 87.6%
same,log k (HSA),[6],0.8
same,fraction unbound,[7],0.474
same,log k (IAM),[8],2.6
same,% LTB,[9],96.3%
same,% AGP bound,AGP [2],48.4%
same,Vd,[10],6.9 L/kg
same,Vdu,[10],56.1 L/kg
same,phospholipidosis,[11],causes phospholipidosis
same,% AGP bound,[12],88.8%
same,Measured log I (ChemSpider),[13],2.68-4.63
same,Estimated % plasma protein binding (PPB),[14],94.8%
same,fraction unbound,[14],0.05
same,%BTB,[15],98.4%
same,Kp at 0.1 h,[15],3.4
same,volume of distribution described in the literature,[16],over 100 L/kg
"CCN(CCO)CCCC(C)Nc1ccnc2cc(Cl)ccc12 (stereo not drawn) [HCQ, hydroxy-chloroquine]",Phospholipidotic potential (CAD-likeness),[17],73.6
same,fraction unbound,[6],0.181
same,% HSA bound,[6],84.9%
same,log k (HSA),[6],0.7
same,fraction unbound,[7],0.693
same,log k (IAM),[8],2.5
same,% HSA bound,HSA [1]; equilibrium dialysis method,40%
same,% LTB,[9],93.9%
same,% AGP bound,AGP [2]; equilibrium dialysis method,34%
same,chromatographic logD,"[18]; Gemini NX C-18(2) HPLC column, pH 7.4, C-18 gradient HPLC, racemate not resolved, read-out: CHI log D (pH 7.4)",0.66
same,chromatographic logP,"[18]; from pH 10.5 mobile phase, read-out: CHI log P",2.13
same,Vd,[10]; human,5.8 L/kg
same,Vd,[10],5.1 L/kg
same,Vdu,[10],38.8 L/kg
same,% AGP bound,[12],89.0%
same,log k (AGP),"[12]; standard 6 min IPA gradient, racemate",0.9
same,Kpcell,[19],7.3
same,Estimated % plasma protein binding (PPB),[14],93.4%
same,fraction unbound,[14],0.07
same,%BTB,[15],97.6%
same,est log k BB,[15],0.8
same,Kp at 0.1 h,[15],2.8
same,volume of distribution described in the literature,[16],over 100 L/kg
same,Vd,[16]; healthy volunteers,above 4000 L/kg
CCCCC(=O)c1ccccc1 [Valerophenone],CHI at pH 2.6,[5],96.4
same,CHI at pH 7.4,[5],96.20
same,CHI at pH 10.5,[5],96.36
COc1cc(Cc2cnc(N)nc2N)cc(OC)c1OC [Trimethoprim],% HSA,HSA [1],37.6%
same,% AGP,AGP [2]; [21],46.2%
same,log k (AGP),AGP [3],-0.1
same,log k (HSA),HSA [4],-0.2
CC(C)NCC(O)COc1cccc2ccccc12 (stereo not drawn) [Propranolol],"calculated % binding, HSA 5 % IPA",[6]; 1.2 mL/min,0.76 (54 %)
same,"calculated % binding, HSA 8 % IPA","[6]; isocratic 8 % IPA, 1.2 mL/min",0.73 (57.6 %)
same,"calculated % binding, HSA 15 % IPA",[6]; 1.2 mL/min,0.58 (66 %)
same,% HSA,HSA [1],66.6%
same,% AGP,AGP [2]; [21],86%
same,% PPB (binds to plasma proteins),[20],propranolol (66 % PPB)
same,log k (AGP),AGP [3],0.8
same,"calculated % binding, AGP 5 % IPA",[12],2.78 (85 %)
same,"calculated % binding, AGP 8 % IPA",[12],1.73 (68 %)
same,"calculated % binding, AGP 15 % IPA",[12],1.58 (67 %)
same,log k (HSA),HSA [4],0.3
Cn1c(=O)c2[nH]cnc2n(C)c1=O [Theophylline],CHI at pH 2.6,[5],17.9
same,CHI at pH 7.4,[5],18.4
same,CHI at pH 10.5,[5],5.0
O=C(O)Cc1ccccc1Nc1c(Cl)cccc1Cl [Diclofenac],log k (AGP),AGP [3],0.2
Cn1c(=O)c2nc(-c3ccccc3)[nH]c2n(C)c1=O [Phenyl theophylline],CHI at pH 2.6,[5],51.7
same,CHI at pH 7.4,[5],51.2
same,CHI at pH 10.5,[5],51.3
CNC(=C[N+](=O)[O-])NCCSCc1csc(CN(C)C)n1 [Nizatidine],% HSA,HSA [1],20.4%
same,% AGP,AGP [2]; [21],37.1%
same,log k (AGP),AGP [3],-0.2
same,log k (HSA),HSA [4],-0.6
COC(=O)C1=C(C)NC(C)=C(C(=O)OCCN(C)Cc2ccccc2)C1c1cccc([N+](=O)[O-])c1 (stereo not drawn) [Nicardipine],"calculated % binding, HSA 5 % IPA",[6]; 1.2 mL/min,6 (96 %)
same,"calculated % binding, HSA 15 % IPA",[6]; 1.2 mL/min,1.05 (95 %)
same,% AGP,AGP [2]; [21],87%
same,% PPB (binds to plasma proteins),[20],nicardipine (96 % PPB)
same,log k (AGP),AGP [3],0.8
same,"calculated % binding, AGP 5 % IPA",[12],>8 min (>98 %)
same,"calculated % binding, AGP 8 % IPA",[12],5.63 (98 %)
same,"calculated % binding, AGP 15 % IPA",[12],5.0 (96 %)
same,log k (HSA),HSA [4],1.2
COc1cc2c(c(OC)c1OC)-c1ccc(OC)c(=O)cc1[C@@H](NC(C)=O)CC2 [Colchicine],CHI at pH 2.6,[5],43.9
same,CHI at pH 7.4,[5],45.0
same,CHI at pH 10.5,[5],43.9
c1ccc2[nH]ccc2c1 [Indole],CHI at pH 2.6,[5],72.1
same,CHI at pH 7.4,[5],71.5
same,CHI at pH 10.5,[5],72.1
